Measurements as given in patent publication US8501446B2 (Vertex Pharmaceuticals Incorporated, priority 2004, dated 2013).

Key:
Assay type in all cases: biochemical
JAK3 = target: T1, JAK3 (Homo sapiens, UniProt P52333); experiment: JAK3 inhibition assay (standard radioactive enzyme assay); details: average Ki if more than one value determined
T1 sequence (P52333 1-1124): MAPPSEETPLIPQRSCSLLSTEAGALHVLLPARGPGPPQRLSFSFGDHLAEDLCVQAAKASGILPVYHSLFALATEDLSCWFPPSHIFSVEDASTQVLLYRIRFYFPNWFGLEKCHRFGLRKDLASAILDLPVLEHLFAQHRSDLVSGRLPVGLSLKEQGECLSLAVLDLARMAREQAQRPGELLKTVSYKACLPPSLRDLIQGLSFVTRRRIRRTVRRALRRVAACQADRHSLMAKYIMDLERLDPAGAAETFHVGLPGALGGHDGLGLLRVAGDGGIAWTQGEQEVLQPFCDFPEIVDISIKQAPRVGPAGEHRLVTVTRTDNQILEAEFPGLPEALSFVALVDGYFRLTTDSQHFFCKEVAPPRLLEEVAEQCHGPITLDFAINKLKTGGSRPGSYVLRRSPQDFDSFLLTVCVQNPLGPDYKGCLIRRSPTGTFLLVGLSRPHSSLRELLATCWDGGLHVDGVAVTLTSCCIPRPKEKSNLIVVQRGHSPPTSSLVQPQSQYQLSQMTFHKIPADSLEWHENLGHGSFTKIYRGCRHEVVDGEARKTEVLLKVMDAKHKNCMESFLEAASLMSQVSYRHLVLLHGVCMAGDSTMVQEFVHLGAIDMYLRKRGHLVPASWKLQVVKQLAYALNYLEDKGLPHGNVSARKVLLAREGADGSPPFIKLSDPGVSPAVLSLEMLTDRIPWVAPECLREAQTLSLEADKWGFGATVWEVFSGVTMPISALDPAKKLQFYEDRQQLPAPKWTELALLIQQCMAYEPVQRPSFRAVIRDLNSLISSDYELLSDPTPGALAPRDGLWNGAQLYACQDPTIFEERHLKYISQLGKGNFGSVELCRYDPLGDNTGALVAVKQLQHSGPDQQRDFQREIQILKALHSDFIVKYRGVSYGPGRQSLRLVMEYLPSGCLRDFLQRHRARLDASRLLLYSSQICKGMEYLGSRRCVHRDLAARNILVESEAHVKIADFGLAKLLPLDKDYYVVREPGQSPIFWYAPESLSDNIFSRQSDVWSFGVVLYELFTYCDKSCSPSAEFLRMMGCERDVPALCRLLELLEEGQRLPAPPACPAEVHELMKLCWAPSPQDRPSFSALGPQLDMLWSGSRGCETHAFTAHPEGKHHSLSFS

JAK2 = JAK2 (Homo sapiens, UniProt O60674); experiment: JAK2 inhibition assay (radioactive enzyme assay, as for JAK3); details: average Ki if more than one value determined
JAK2, sequence (O60674 whole entry, species assumed): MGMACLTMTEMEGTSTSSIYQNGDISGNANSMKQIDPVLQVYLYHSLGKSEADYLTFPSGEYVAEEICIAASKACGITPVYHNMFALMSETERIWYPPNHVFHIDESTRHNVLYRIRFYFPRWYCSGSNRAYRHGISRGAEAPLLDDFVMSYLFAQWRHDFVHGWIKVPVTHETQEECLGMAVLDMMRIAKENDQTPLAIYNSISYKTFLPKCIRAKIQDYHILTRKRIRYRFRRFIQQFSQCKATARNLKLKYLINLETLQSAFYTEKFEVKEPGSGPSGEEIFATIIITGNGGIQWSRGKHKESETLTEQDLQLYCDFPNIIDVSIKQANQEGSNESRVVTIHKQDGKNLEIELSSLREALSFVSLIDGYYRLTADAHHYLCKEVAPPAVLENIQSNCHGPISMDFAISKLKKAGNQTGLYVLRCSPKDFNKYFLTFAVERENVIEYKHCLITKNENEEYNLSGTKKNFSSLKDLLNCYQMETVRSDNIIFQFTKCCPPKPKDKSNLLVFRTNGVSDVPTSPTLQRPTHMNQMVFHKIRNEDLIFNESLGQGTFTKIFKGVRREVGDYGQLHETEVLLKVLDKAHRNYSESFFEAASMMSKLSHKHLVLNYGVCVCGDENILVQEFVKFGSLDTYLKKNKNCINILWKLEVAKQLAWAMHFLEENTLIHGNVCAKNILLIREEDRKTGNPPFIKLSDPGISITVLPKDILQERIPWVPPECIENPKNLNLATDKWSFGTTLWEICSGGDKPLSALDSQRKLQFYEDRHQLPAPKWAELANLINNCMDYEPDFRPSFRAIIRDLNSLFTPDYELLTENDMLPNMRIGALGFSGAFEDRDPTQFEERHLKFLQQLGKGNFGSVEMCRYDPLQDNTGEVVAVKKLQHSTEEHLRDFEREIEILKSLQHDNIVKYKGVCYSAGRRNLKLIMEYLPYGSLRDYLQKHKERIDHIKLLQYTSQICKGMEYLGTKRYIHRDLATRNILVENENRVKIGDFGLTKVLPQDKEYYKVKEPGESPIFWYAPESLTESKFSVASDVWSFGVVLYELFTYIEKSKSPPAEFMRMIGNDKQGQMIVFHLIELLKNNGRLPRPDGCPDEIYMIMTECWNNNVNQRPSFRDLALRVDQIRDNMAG
Summary of the method: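 Both kinases: poly(Glu)4Tyr substrate in 100 mM HEPES pH 7.4, 10 mM MgCl2, 1 mM DTT. Run 20 min at 25° C, TCA stop, filter-bound ³³P counted, Ki(app) fitted after background subtraction. JAK3: final [γ-³³P]ATP 5 μM, enzyme added as 2 nM solution. JAK2: final poly(Glu)4Tyr 15 μM, final ATP 12 μM.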

ROCK = ROCK (Homo sapiens, UniProt Q13464); experiment: ROCK inhibition assay, standard radioactive enzyme assay ("33P")
ROCK, sequence (Q13464 whole entry): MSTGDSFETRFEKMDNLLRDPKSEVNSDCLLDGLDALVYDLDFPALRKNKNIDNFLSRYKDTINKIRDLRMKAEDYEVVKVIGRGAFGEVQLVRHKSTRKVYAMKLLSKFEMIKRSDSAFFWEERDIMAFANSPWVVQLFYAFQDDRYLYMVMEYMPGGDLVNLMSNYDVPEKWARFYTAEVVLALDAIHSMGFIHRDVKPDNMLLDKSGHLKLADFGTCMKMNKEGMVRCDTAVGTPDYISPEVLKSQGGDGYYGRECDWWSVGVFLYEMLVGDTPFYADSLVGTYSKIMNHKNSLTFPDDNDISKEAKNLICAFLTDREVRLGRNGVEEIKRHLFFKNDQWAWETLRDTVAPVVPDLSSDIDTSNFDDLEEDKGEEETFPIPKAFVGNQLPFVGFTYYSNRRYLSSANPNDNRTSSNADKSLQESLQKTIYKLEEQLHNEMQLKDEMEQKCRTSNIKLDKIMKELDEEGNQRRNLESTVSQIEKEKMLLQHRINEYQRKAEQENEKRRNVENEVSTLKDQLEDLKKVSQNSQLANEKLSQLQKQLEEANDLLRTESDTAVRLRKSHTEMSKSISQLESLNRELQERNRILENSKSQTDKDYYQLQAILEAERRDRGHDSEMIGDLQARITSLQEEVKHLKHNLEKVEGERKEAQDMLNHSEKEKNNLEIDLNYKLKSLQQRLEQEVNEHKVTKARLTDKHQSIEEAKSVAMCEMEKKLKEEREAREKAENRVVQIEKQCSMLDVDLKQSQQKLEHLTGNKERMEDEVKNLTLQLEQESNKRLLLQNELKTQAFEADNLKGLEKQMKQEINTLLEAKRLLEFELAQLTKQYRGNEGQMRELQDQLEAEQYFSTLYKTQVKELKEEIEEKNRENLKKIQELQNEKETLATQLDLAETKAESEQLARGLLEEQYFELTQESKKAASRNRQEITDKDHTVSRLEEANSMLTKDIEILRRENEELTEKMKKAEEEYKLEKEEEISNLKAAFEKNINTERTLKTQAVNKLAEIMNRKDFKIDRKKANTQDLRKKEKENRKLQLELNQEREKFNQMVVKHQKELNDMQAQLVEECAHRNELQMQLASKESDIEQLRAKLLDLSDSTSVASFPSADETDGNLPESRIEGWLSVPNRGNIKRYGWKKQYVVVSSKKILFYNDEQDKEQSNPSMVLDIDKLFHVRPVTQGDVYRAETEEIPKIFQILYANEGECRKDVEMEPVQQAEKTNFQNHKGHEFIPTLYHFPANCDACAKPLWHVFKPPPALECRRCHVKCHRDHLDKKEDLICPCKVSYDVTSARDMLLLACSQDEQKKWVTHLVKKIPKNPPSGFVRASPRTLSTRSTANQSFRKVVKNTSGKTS
Method: Some compounds were screened for their ability to inhibit ROCK using a standard radioactive enzyme assay. Assays were carried out in a solution containing 100 mM HEPES (pH 7.5), 10 mM MgCl2, 25 mM NaCl, 2 mM DTT, and 1.5% DMSO. Final substrate concentrations in the assay were 13 μM [γ-^33P] ATP (25 mCi ^33P ATP/mmol ATP, Perkin Elmer, Cambridge, Mass./Sigma Chemicals, St Louis, Mo.) and 27 μM Myelin Basic Protein (MBP). Final enzyme concentration in the assay was 5 nM ROCK. Assays were carried out at room temperature. 1.5 μl of DMSO stock containing serial dilutions of the compound of the present invention (concentrations ranging from 10 μM to 2.6 nM) was placed in a 96 well plate. 50 μl of Solution 1 (100 mM HEPES (pH 7.5), 10 mM MgCl2, […]) was added to the plate. The reaction was initiated by addition of 50 μl of Solution 2 (100 mM HEPES (pH 7.5), 10 mM MgCl2, 4 mM DTT, […] and 10 nM ROCK). After 2 hours the reaction was quenched with 50 μL of 30% trichloroacetic acid (TCA, Fisher) containing 9 mM ATP. Transfer of 140 μL of the quenched reaction to a glass fiber filter plate (Corning, Cat. No. 3511) was followed by washing 3 times with 5% TCA. 50 μL of Optima Gold scintillation fluid (Perkin Elmer) was added and the plates were counted on a Top Count (Perkin Elmer). After removing mean background values for all of the data points the data was fit using Prism software to obtain a Ki(app).

[1] = target: T2, full length Aurora-A (AA 1-403) (Homo sapiens, UniProt O14965); experiment: Aurora-A inhibition assay, standard coupled enzyme system; details: average Ki if more than one value determined
T2 construct: full length Aurora-A (AA 1-403)
T2 sequence (O14965 1-403): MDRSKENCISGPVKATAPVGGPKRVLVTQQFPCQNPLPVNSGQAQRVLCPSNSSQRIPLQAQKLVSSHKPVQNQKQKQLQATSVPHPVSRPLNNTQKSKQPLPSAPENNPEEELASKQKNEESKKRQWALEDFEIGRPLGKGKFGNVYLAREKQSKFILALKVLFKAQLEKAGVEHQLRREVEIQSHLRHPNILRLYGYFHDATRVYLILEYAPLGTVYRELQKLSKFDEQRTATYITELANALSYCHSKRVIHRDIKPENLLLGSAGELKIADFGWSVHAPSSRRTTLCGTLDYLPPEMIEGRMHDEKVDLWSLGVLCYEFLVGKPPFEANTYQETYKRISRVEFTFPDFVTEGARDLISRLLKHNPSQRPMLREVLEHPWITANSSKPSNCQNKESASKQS

Aurora-B = Aurora-B (Homo sapiens, UniProt Q96GD4); experiment: Aurora-B inhibition assay, radioactive assay; details: average Ki if more than one value determined
Aurora-B, sequence (Q96GD4 whole entry): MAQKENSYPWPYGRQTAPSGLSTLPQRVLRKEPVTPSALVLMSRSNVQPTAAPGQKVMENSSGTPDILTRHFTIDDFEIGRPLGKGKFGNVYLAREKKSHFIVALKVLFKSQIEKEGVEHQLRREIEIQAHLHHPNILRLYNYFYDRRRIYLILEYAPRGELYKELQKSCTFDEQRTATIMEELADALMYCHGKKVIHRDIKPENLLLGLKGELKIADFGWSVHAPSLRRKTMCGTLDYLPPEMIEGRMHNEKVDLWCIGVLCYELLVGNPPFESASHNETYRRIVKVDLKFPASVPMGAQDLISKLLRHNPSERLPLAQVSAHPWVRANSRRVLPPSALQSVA
Summary of the method: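 Aurora-B protein substituted into the standard radioactive kinase format: reaction quenched with TCA, product captured on glass fiber filters and 33P counted. Ki(app) derived by fitting background-corrected counts against inhibitor concentration.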

Row | Compound | Ki (JAK3) [nM] | Ki (JAK2) [nM] | Ki (ROCK) [nM] | Ki [1] [nM] | Ki (Aurora-B) [nM]
1 | COc1cnc2[nH]cc(-c3ccnc(N4CCCN(C(C)=O)CC4)n3)c2c1 [Compound 24] | < 500 | < 500 | < 500 | 500 to 5000 | 
2 | COc1cnc2[nH]cc(-c3ccnc(N4CCCN(S(C)(=O)=O)CC4)n3)c2c1 [Compound 30] | < 500 | < 500 | < 500 | < 500 | 
3 | CC(=O)N1[C@H](C)CN(c2nc(-c3c[nH]c4ncc(Cl)cc34)ccc2C(N)=O)C[C@@H]1C [Compound 32] | < 500 | < 500 | 500 to 5000 | < 500 | 

More lines, now with the values ahead:

Row | Ki (JAK3) [nM] | Ki (JAK2) [nM] | Ki (ROCK) [nM] | Ki [1] [nM] | Ki (Aurora-B) [nM] | Compound
4 | < 500 | < 500 | 500 to 5000 | < 500 |  | Clc1cnc2[nH]cc(-c3cccc(NCc4ccccc4)n3)c2c1 [Compound 20]
5 | < 500 | < 500 | < 500 | < 500 |  | COc1cnc2[nH]cc(-c3ccnc(N4C[C@@H](C)N(C(C)=O)[C@@H](C)C4)n3)c2c1 [Compound 25]
6 |  |  | 500 to 5000 | < 500 | 500 to 5000 | Nc1ccc(-c2c(-c3ccccc3)[nH]c3ncc(Br)cc23)cc1 [Compound 212]
